Patent publication EP4729530A1, “NOVEL PEPTIDE AND USE THEREOF” (Gemvax & Kael Co., Ltd., priority 2023, dated 2024)

Key:
[1] = Stability in human plasma (LC-MS, residual peptide); format: in vitro ADME; conditions: 37 °C, read-out: percentage of residual peptide relative to the peptide amount before reaction
Experimental: The peptide was added to human plasma and diluted to a concentration of 5 µM, followed by incubation at 37 °C for 10, 60, and 240 minutes with stirring. The reaction mixture was collected and pretreated by plasma protein precipitation using methanol containing 0.1% formic acid. The resulting supernatants were collected and analyzed by LC-MS under the conditions shown in Table 1 below to determine the percentage of residual peptide relative to the initial peptide amount.

[2] = Pharmacokinetic profile in rats (intravenous and subcutaneous administration); format: in vivo; conditions: Sprague Dawley rats
Experimental: To determine the pharmacokinetic profile of GV2002 prepared in Example 1, plasma was collected from rats administered with GV2002. The collected plasma was pretreated by protein precipitation using nine times the volume of methanol containing 0.1% formic acid, followed by centrifugation at 16,100 g for 10 minutes.
(§1) GV2002 was administered intravenously (IV) to three Sprague Dawley rats per group. Blood samples were collected at 0.033, 0.083, 0.17, 0.25, 0.5, 1, and 2 hours after administration. The collected blood samples were centrifuged to separate plasma, pretreated, and analyzed using LC-MS. Pharmacokinetic parameters were calculated using the non-compartmental analysis model of the Phoenix WinNonlin (Pharsight, ver. 6.4, USA) program.
as §1, with “subcutaneously (SC)” for “intravenously (IV)”, “of” for “of the”, “(Pharsight” for “(Pharsight,”, “USA).” for “USA) program.”

[3] = tested on: 4R Tau^P301L-BiFC mouse; assay: Rota-rod experiment in 4R tauopathy mouse model; format: in vivo; conditions: 3 times/week, 21 weeks
Experimental: (§2) In vivo experiments were performed on the 4R tauopathy mouse groups shown in FIG. 4 according to the schedule shown in FIG. 5 and the outline in Table 3 below.
Rota-rod experiments were conducted on mice with 4R tauopathy treated with GV2002 for five months, from 7.5 to 12.5 months of age, to evaluate the efficacy of GV2002 in alleviating impairment in motor ability.
On day 1, acclimation training was conducted, and on day 2, behavioral testing was conducted. Prior to acclimation training and behavioral testing, mice were allowed to acclimate to the testing environment for one hour. During acclimation training, mice walked on a […] at a speed ranging from 5 to 25 rpm for 300 seconds, and any mouse that lost its balance and fell to the floor was allowed to walk again. […] The measured values were analyzed using a two-way ANOVA with Dunnett's multiple comparisons test.

[4] = tested on: 4R Tau^P301L-BiFC mouse; assay: Open field experiment in 4R tauopathy mouse model; format: in vivo; conditions: GV2002 2 mg/kg subcutaneous, 3 times/week, 21 weeks; 10 minutes open field
Experimental: as §2
Open field experiments were conducted on mice with 4R tauopathy administered GV2002 for five months, from 7.5 to 12.5 months of age, to evaluate the efficacy of GV2002 in alleviating impairment in motor ability.
To prevent changes in mouse behavioral responses, handling was performed for five days (days 1 to 5) prior to the experiment. Each handling session lasted two minutes. On day 6, mice were placed in a 40 cm × 40 cm enclosure and subjected to an open field experiment for 10 minutes. Prior to the experiment, mice were allowed one hour to acclimate to the testing environment. During the open field experiment, movement trajectories, distance traveled, and movement speed of the mice were recorded. The illumination level was maintained at a constant level throughout the experiment. The recorded values were analyzed using one-way ANOVA with Dunnett's multiple comparisons test.

[5] = tested on: 4R Tau^P301L-BiFC mouse; assay: Novel object recognition experiment in 4R tauopathy mouse model; format: in vivo; conditions: GV2002 2 mg/kg subcutaneous, 3 times/week, 21 weeks
Experimental: as §2
Novel object recognition experiments were conducted on a 4R tauopathy mouse model administered GV2002 for five months, from 7.5 to 12.5 months of age, to evaluate the efficacy of GV2002 in alleviating impairment in cognitive ability.
Mice that underwent the experiment from days 1 to 6 according to the experimental method in Example 4-2 were subjected to a novel object recognition experiment on days 7 and 8. […] On day 8, one of the two objects was replaced with a novel object, and mice were placed in the enclosure and observed for 10 minutes, during which the time spent exploring the novel object was measured. Prior to the experiments on days 7 and 8, mice were allowed one hour to acclimate to the testing environment. The illumination level was maintained at a constant level throughout the experiment. The recorded data were analyzed using two-way ANOVA with Sidak's multiple comparisons test.

[6] = tested on: 4R Tau^P301L-BiFC mouse; assay: Y-maze experiment in 4R tauopathy mouse model; format: in vivo; conditions: GV2002 2 mg/kg subcutaneous, 3 times/week, 21 weeks; 8 minutes Y-maze
Experimental: as §2
Y-maze experiments were conducted on a 4R tauopathy mouse model administered GV2002 for five months, from 7.5 to 12.5 months of age, to evaluate the efficacy of GV2002 in alleviating impairment in spatial memory.
Prior to the experiment, mice were allowed one hour to acclimate to the testing environment. The mice's behavior was recorded for 8 minutes.

[7] = tested on: tau oligomer formation; assay: Brain Tau-BiFC imaging for tau oligomer formation; format: in vivo, mouse; conditions: GV2002 2 mg/kg subcutaneous, 3 times/week, 21 weeks
Experimental: as §2
Brains from a 4R tauopathy mouse model administered GV2002 for five months, from 7.5 to 12.5 months of age, were removed and analyzed using lipid staining.
Brain tissue sampling was performed in the same manner as in Example 4-5.
To remove autofluorescence from brain tissues through lipid staining, a 0.05% Sudan Black B solution in 70% ethanol was stirred overnight and then filtered through a 0.22-µm filter. 30-µm-thick frozen brain sections from each region were immersed in deionized water and washed three times for 5 minutes each. The brain tissue was then immersed in the prepared 0.05% Sudan Black B solution for 10 minutes to perform staining. The brain tissue stained with Sudan Black B was immersed in 0.1% PBS-T solution and washed at 30-second intervals to adjust the staining intensity and then washed three times with deionized water for 5 minutes each. Nuclear staining was performed by immersing the brain tissue in a 0.2-µg/mL Hoechst solution in deionized water for 20 minutes. The tissue was then washed three times with deionized water for 5 minutes each. Tau-BiFC imaging was performed using a slide scanner.
To obtain fluorescence images of the stained brain tissue, brain tissue slides were scanned using a Zeiss Axio Scan. Tau-BiFC fluorescence levels in each brain region obtained through fluorescence imaging, i.e., the somatosensory cortex, hippocampus (CA1), motor cortex, and substantia nigra, were calculated using ImageJ software. The calculated values were analyzed using one-way ANOVA with Dunnett's multiple comparisons test.

Substance: Ac-EARPALLTSRLRFIPK-NH2 [GV2002]
- remaining at 1 h, 5 µM ([1]; 60 minutes): 57.2%
- remaining at 4 h, 5 µM ([1]; 240 minutes): 46.5%
- AUC(0-t) ([2]; rat, plasma, intravenous (IV), non-compartmental analysis): 438 ng·h/mL
- in vivo persistence after subcutaneous administration ([2]; subcutaneous (SC)): remains in a stable state in vivo without degradation and persists for a long period of time
- motor ability (Rota-rod) compared to the reference compound LMTM-administered group ([3]; GV2002 2 mg/kg subcutaneous vs LMTM 15 mg/kg oral): relatively enhanced motor ability
- motor ability (Rota-rod, time until fall) compared to the vehicle-administered group ([3]; GV2002 2 mg/kg subcutaneous, 7.5 to 12.5 months of age): significantly improved motor ability
- movement speed in the open space compared to the vehicle-administered group [4]: significantly higher
- total distance traveled in the open space compared to the vehicle-administered group [4]: significantly higher
- time spent exploring the novel object compared to the time spent exploring the learned object [5]: significant increase
- rate of spontaneous alternation behavior compared to the vehicle-administered group [6]: significant increase
- Tau-BiFC fluorescence intensity, reduction compared to the vehicle-administered group ([7]; hippocampus region): 63%
- Tau-BiFC fluorescence intensity, reduction compared to the vehicle-administered group ([7]; motor cortex region): 56%
- Tau-BiFC fluorescence intensity, reduction compared to the vehicle-administered group ([7]; somatosensory cortex region): 58%
- Tau-BiFC fluorescence intensity, reduction compared to the vehicle-administered group ([7]; substantia nigra region): 56%
